# Results published in patent publication US20120004282A1, “RNA Interference Mediated Inhibition of the Intercellular Adhesion Molecule 1 (ICAM-1) Gene Expression Using Short Interfering Nucleic Acid (siNA)” (Merck Sharp & Dohme Corp,, priority 2009, published 2012).
# [invAb] = inverted abasic unit; m = 2'-O-methyl; r = 2'-OH (RNA); f = 2'-fluoro
# Tested on: ICAM-1 mRNA
# Assay: ICAM-1 mRNA knock-down in transfected Calu-1 cells (Taqman RT-PCR)
# Assay type: cell-based, human
# Conditions: Calu-1 cells, 10 nM siNA, 24 hrs post-transfection, mean ± S.D., relative to non-targeting control
# Method: Calu-1 (human; ATCC cat# HTB-54): Cells were cultured at 37° C. in the presence of 5% CO2 and grown in McCoy's 5a medium supplemented with fetal bovine serum at a final concentration of 10% and 100 μg/mL of streptomycin and 100 U/mL penicillin.
# All transfections were performed using RNAiMax (Invitrogen Cat# 13778-150) as per the manufacturer's instructions.
# Calu-1 cells were plated in all wells of a tissue-culture treated, 96-well plate at final counts of 5,000 cells/well in 100 μL of appropriate culture media. Cells were cultured for 24 hours after plating at 37° C. in the presence of 5% CO2.
# After 24 hours, complexes containing siNA and RNAiMax were created as follows. A solution of RNAiMax diluted 33-fold in OPTI-MEM was prepared. In parallel, solutions of the siNAs for testing were prepared to a final concentration of 120 nM in OPTI-MEM. After incubation of RNAiMax/OPTI-MEM solution at room temperature for 5 min, an equal volume of the siNA solution and the RNAiMax solution were added together for each of the siNAs. […] This solution was incubated at room temperature for 20 minutes. After incubation, 20 uL of the solution was added to each of the relevant wells. The final concentration of siNA in each well was 10 nM and the final volume of RNAiMax in each well was 0.3 uL.
# The time of incubation with the RNAiMax-siNA complexes was 24 hours, unless otherwise indicated. There was no change in media between the transfection and harvesting of the cells unless otherwise indicated.
# Dose response curves were carried out in a similar fashion in 96-well plates, while maintaining a constant amount of RNAiMax in each transfection.
# RNA was extracted from a 96-well plate using the TaqMan® Gene Expression Cells-to-CT™ Kit (Cat# 4399002) with a modified protocol. Briefly, a 60 uL (1 plate) or 110 uL (2 plates) of the Lysis Solution with DNase I was dispensed into each well of the Lysis Buffer Plate (twin.tec full skirt plate). The lysis buffer and stop plates were stored at 4° C. until the cells were washed.
# The plate was spun at 1100 rpm for 5 minutes. The culture medium was aspirated and discarded from the wells of the culture plate. The lysis was performed automatically using a BioMek FX instrument and method. After the Biomek method was completed, the lysis plate was incubated for 2 min. at room temperature. The lysis plate can be stored for 2 hours at 4° C., or at −20° C. or −80° C. for two months.
# Each well of the reverse transcription plate required 10 uL of 2× reverse transcriptase Buffer, 1 uL of 20× reverse transcription enzyme and 2 uL of nuclease-free water. The reverse transcription master mix was prepared by mixing 2× reverse transcription buffer, 20× reverse transcription enzyme mix, and nuclease-free water. 13 uL of the reverse transcription master mix was dispensed into each well of the reverse transcription plate (semi-skirted). A separate reverse transcription plate was prepared for each cell plate. The plate was loaded onto a Biomek NX or Biomek FX Dual-96 and the Biomek method was run. The program is programmed to automatically added 7 uL of lysate from the cell lysis procedure described above into each well of the reverse transcription plate. The plate is sealed and spun on a centrifuge (1000 rpm for 30 seconds) to settle the contents to the bottom of the reverse transcription plate. The plate is placed in a thermocycler at 37° C. for 60 min, 95° C. for 5 min, and 4° C. until the plate is removed from the thermocycler. Upon removal, if not used immediately, the plate was frozen at −20° C.
# A series of probes and primers were used to detect the various mRNA transcripts of the genes of ICAM-1 and ICAM-2 in human cell lines (see Table 2). All the Taqman probes and primers for the experiments here-in described were supplied as pre-validated sets by Applied Biosystems, Inc., (see Table 2). The assays were performed on an ABI 7900 instrument, according to the manufacturer's instructions. […]
row,Substance,% KD Human [%]
1,"48704-DC: siNA duplex, ICAM-1 target site 395 (m); sense B cGuGuAuucGuuuccGGAG TTB; antisense CUCcGGAAAcGAAuAcAcGUU (sense CGUGUAUUCGUUUCCGGAGTT; antisense CUCCGGAAACGAAUACACGUU; sense: DNA at AGT, 2'-fluoro at CU, [invAb] at 5' end, 3' end, backbone not given here; antisense: sugars from the 5' end rrrfmmmmmfmmmfmfmfmmm, backbone not given here)",33 ± 22
2,"48705-DC: siNA duplex, ICAM-1 target site 987 (m); sense B AGGAccuuAAcAGucuAcA TTB; antisense UGUAGAcuGuuAAGGuccuUU (sense AGGACCUUAACAGUCUACATT; antisense UGUAGACUGUUAAGGUCCUUU; sense: DNA at AGT, 2'-fluoro at CU, [invAb] at 5' end, 3' end, backbone not given here; antisense: sugars from the 5' end rrrmmmffmffmmmmffffmm, backbone not given here)",5 ± 51
3,"48706-DC: siNA duplex, ICAM-1 target site 250 (m); sense B GcuuGGAGAcucAGuGGcu TTB; antisense AGCcAcuGAGucuccAAGcUU (sense GCUUGGAGACUCAGUGGCUTT; antisense AGCCACUGAGUCUCCAAGCUU; sense: DNA at AGT, 2'-fluoro at CU, [invAb] at 5' end, 3' end, backbone not given here; antisense: sugars from the 5' end rrrfmffmmmfffffmmmfmm, backbone not given here)",23 ± 31
4,"48707-DC: siNA duplex, ICAM-1 target site 258 (m); sense B AcucAGuGGcuGAAAGAuG TTB; antisense CAUcuuucAGccAcuGAGuUU (sense ACUCAGUGGCUGAAAGAUGTT; antisense CAUCUUUCAGCCACUGAGUUU; sense: DNA at AGT, 2'-fluoro at CU, [invAb] at 5' end, 3' end, backbone not given here; antisense: sugars from the 5' end rrrfffffmmffmffmmmfmm, backbone not given here)",46 ± 17
5,"48708-DC: siNA duplex, ICAM-1 target site 1762 (m); sense B AcAGcAuuuAcccucAGcc TTB; antisense GGCuGAGGGuAAAuGcuGuUU (sense ACAGCAUUUACCCUCAGCCTT; antisense GGCUGAGGGUAAAUGCUGUUU; sense: DNA at AGT, 2'-fluoro at CU, [invAb] at 5' end, 3' end, backbone not given here; antisense: sugars from the 5' end rrrfmmmmmfmmmfmffmfmm, backbone not given here)",22 ± 9
6,"48709-DC: siNA duplex, ICAM-1 target site 988 (m); sense B GGAccuuAAcAGucuAcAA TTB; antisense UUGuAGAcuGuuAAGGuccUU (sense GGACCUUAACAGUCUACAATT; antisense UUGUAGACUGUUAAGGUCCUU; sense: DNA at AGT, 2'-fluoro at CU, [invAb] at 5' end, 3' end, backbone not given here; antisense: sugars from the 5' end rrrfmmmffmffmmmmfffmm, backbone not given here)",32 ± 14
7,"48710-DC: siNA duplex, ICAM-1 target site 1574 (m); sense B ccucGuGAuGGcAGccucu TTB; antisense AGAGGcuGccAucAcGAGGUU (sense CCUCGUGAUGGCAGCCUCUTT; antisense AGAGGCUGCCAUCACGAGGUU; sense: DNA at AGT, 2'-fluoro at CU, [invAb] at 5' end, 3' end, backbone not given here; antisense: sugars from the 5' end rrrmmffmffmffmfmmmmmm, backbone not given here)",25 ± 5
8,"48711-DC: siNA duplex, ICAM-1 target site 1577 (m); sense B cGuGAuGGcAGccucuuAu TTB; antisense AUAAGAGGcuGccAucAcGUU (sense CGUGAUGGCAGCCUCUUAUTT; antisense AUAAGAGGCUGCCAUCACGUU; sense: DNA at AGT, 2'-fluoro at CU, [invAb] at 5' end, 3' end, backbone not given here; antisense: sugars from the 5' end rrrmmmmmffmffmffmfmmm, backbone not given here)",42 ± 13
9,"48712-DC: siNA duplex, ICAM-1 target site 1579 (m); sense B uGAuGGcAGccucuuAuGu TTB; antisense ACAuAAGAGGcuGccAucAUU (sense UGAUGGCAGCCUCUUAUGUTT; antisense ACAUAAGAGGCUGCCAUCAUU; sense: DNA at AGT, 2'-fluoro at CU, [invAb] at 5' end, 3' end, backbone not given here; antisense: sugars from the 5' end rrrfmmmmmmffmffmffmmm, backbone not given here)",34 ± 27
10,"48713-DC: siNA duplex, ICAM-1 target site 709 (m); sense B GGAcuuucGAucuuccAGc TTB; antisense GCUGGAAGAucGAAAGuccUU (sense GGACUUUCGAUCUUCCAGCTT; antisense GCUGGAAGAUCGAAAGUCCUU; sense: DNA at AGT, 2'-fluoro at CU, [invAb] at 5' end, 3' end, backbone not given here; antisense: sugars from the 5' end rrrmmmmmmffmmmmmfffmm, backbone not given here)",36 ± 17
11,"48714-DC: siNA duplex, ICAM-1 target site 1089 (m); sense B GGGucGAAGGuGGuucuuc TTB; antisense GAAGAAccAccuucGAcccUU (sense GGGUCGAAGGUGGUUCUUCTT; antisense GAAGAACCACCUUCGACCCUU; sense: DNA at AGT, 2'-fluoro at CU, [invAb] at 5' end, 3' end, backbone not given here; antisense: sugars from the 5' end rrrmmmffmfffffmmfffmm, backbone not given here)",48 ± 22
12,"48715-DC: siNA duplex, ICAM-1 target site 1828 (m); sense B AcuuGuAGccucAGAGcuA TTB; antisense UAGcucuGAGGcuAcAAGuUU (sense ACUUGUAGCCUCAGAGCUATT; antisense UAGCUCUGAGGCUACAAGUUU; sense: DNA at AGT, 2'-fluoro at CU, [invAb] at 5' end, 3' end, backbone not given here; antisense: sugars from the 5' end rrrffffmmmmffmfmmmfmm, backbone not given here)",14 ± 12
13,"48716-DC: siNA duplex, ICAM-1 target site 368 (m); sense B GcAGucGuccGcuuccGcu TTB; antisense AGCGGAAGcGGAcGAcuGcUU (sense GCAGUCGUCCGCUUCCGCUTT; antisense AGCGGAAGCGGACGACUGCUU; sense: DNA at AGT, 2'-fluoro at CU, [invAb] at 5' end, 3' end, backbone not given here; antisense: sugars from the 5' end rrrmmmmmfmmmfmmffmfmm, backbone not given here)",22 ± 6
